According to paper PMC12051620, “Molecular basis underlying the specificity of an antagonist AA92593 for mammalian melanopsins” (The Journal of Biological Chemistry, 2025):

Experiments:
[1] = system: Xenopus Opn4x C94^2.61F/T188^ECL2S/A269^6.52S mutant; test: GsX GloSensor assay with Gsα/q11; type: cell-based; conditions: 16.7 μM AA92593, COS-1 cells
Description: (§1) The GsX GloSensor assay using Gsα/q11 of Xenopus Opn4x and chicken Opn4-1 detected the light-dependent Gq activation in both non-mammalian-type melanopsins (Fig. 6, A and D). […] The ineffectiveness of AA92593 is consistent with the fact that Phe-94^2.61, Ser-188^ECL2, and Ser-269^6.52 are not conserved among non-mammalian-type melanopsins (Figs. 2A, S2 and S3). If these three residues are important for the antagonistic effect against melanopsins, the introduction of Phe-94^2.61/Ser-188^ECL2/Ser-269^6.52 into the non-mammalian-type melanopsins would make them susceptible to AA92593. As expected, the substitutions of C94^2.61F/T188S^ECL2/A269^6.52S in Xenopus Opn4x and chicken Opn4-1 increased their sensitivity to AA92593 by ∼49% and ∼22%, respectively (Fig. 6, B and E, G–I). […]
(§2) For GloSensor assay, opsins, GloSensor assay sensor (coded by pGlo-22F), and NanoBiT-tagged G proteins were transiently expressed in COS-1 cells (kindly provided from Dr David Farrens, Oregon Health and Science University) using PEI as described previously ([24], [52]). […] For GFP-fluorescence microscopy, a 35-mm cell culture dish (IWAKI) was transfected with 2 μg melanopsin-GFP plasmid and 8 μg PEI in 400 μl Opti-mem and 1.2 ml D-MEM. […]

[2] = system: chicken Opn4-1 C94^2.61F/T188^ECL2S/A269^6.52S mutant; test: GsX GloSensor assay with Gsα/q11; type: cell-based; conditions: 16.7 μM AA92593, COS-1 cells
Description: as §1, §2

With `COc1ccc(S(=O)(=O)N2CCCCC2)cc1C` [AA92593] the “increase in sensitivity to AA92593 vs WT” value [1] was about 49% and the “increase in sensitivity to AA92593 vs WT” value [2] was about 22%.
